The subject of series [1] is rat model of chronic ocular hypertension (OHT)/glaucoma. Kind of series: Intraocular pressure (IOP) measurement, Tono-Pen Vet tonometer, rat OHT model. The class given is in vivo, Brown Norway rats (Rattus norvegicus). The note with it: average of 5 weekly post-HSI measurements, groups matched for Mean ΔIOP. How it is done: For each IOP measurement time-point following the 2nd HSI, the IOP elevation was calculated as the difference between the IOP in the left eye with OHT and that in the non-OHT right eye (ΔIOP). The ΔIOP for the 5 weekly post-HSI IOP measurements were averaged and constituted the Mean ΔIOP for each animal. […] Other animals were removed from the study. Baseline IOP measurements were taken before the initial dose administration. After application of topical anesthesia (0.5% Proparacaine HCl Ophthalmic Solution), IOP was measured on conscious rats on both eyes using a Tono-Pen Vet tonometer (Reichert, Inc.; Depew, N.Y.). Ten (10) IOP readings are recorded from each eye and averaged. IOP measurements were taken around the same time (e.g., between 10 a.m. and 2 p.m.) across measurement time-points to minimize the circadian variability of IOP. IOP measurements were taken once weekly starting one week after the second HSI until euthanasia (a total of 5 measurements). After application of topical anesthesia (0.5% Proparacaine HCl Ophthalmic Solution), IOP was measured on conscious rats on both eyes using a Tono-Pen Vet tonometer (Reichert, Inc.; Depew, N.Y.). For each time-point, ten (10) IOP readings were recorded from each eye and averaged. IOP measurements were taken around the same time (e.g., between 10 a.m. and 2 p.m.) across measurement time-points to minimize the circadian variability of IOP. The IOP measurements were evaluated as follows: For each time-point following the HSI, the IOP elevation was calculated as the difference between the level in the left eye with OHT and that in the normal right eye (ΔIOP). The ΔIOP of the 5-weekly post-HSI IOP measurements were averaged and constitute the Mean ΔIOP for each animal. For each group, ten (10) animals with a sustained IOP elevation in the OHT eye were selected from a larger pool and groups are matched for the Mean ΔIOP. Other animals were removed from the study and euthanized. […] For each time-point following the HSI, the IOP elevation was calculated as the difference between the level in the left eye with OHT and that in the normal right eye (ΔIOP). The ΔIOP of the 5-weekly post-HSI IOP measurements were averaged and constitute the Mean ΔIOP for each animal. For each group, ten (10) animals with a sustained IOP elevation in the OHT eye were selected from a larger pool and groups were matched for the Mean ΔIOP. Other animals were removed from the study and euthanized.

The subject of another series is Brown Norway rats. The note with it: rat, in vivo. How it is done:
Prior to any experimental procedure, clinical observations were performed daily, body weights were obtained, intraocular pressure (IOP) was measured and detailed ocular examinations were performed on both eyes.
Clinical observations were performed daily according to Table 6 below:
Animals were weighed weekly prior to initiation of dosing. The first day the rats are weighed was designated as Study Day 1, and the beginning of Study Week 1.
Animals selected for the study were examined prior to the initial administration of the test or the control articles to ensure that both eyes were free of abnormality, damage, and disease. Both eyes were examined, scored and recorded prior to the initial dose administration using a hand held slit-lamp and a direct ophthalmoscope or the surgical microscope according to the Classification System for Grading Ocular Lesions as described in Table 7, and the Ocular Posterior Segment Scoring Scale of Table 8. Posterior segment examination was performed after topical application of Tropicamide in the conscious state, or after the rats are anesthetized with isoflorane inhalation. Only rats showing no signs of eye irritation, ocular defects, or preexisting corneal injury were used in the study. […]
Both eyes were examined and scored at one week after the second HSI and on the day of euthanasia, for a total of two times. […]

The subject of a further series is glaucoma human patients. Kind of series: Example 2: efficacy of laquinimod for treating patients afflicted with glaucoma. The format is in vivo. How it is done: Example 2: Assessment of Efficacy of laquinimod for Treating Patients Afflicted with Glaucoma Periodic (e.g., daily or twice daily) administration of laquinimod (oral or topical) is effective in treating glaucoma human patients. Periodic (e.g., daily or twice daily) administration of laquinimod (oral or topical) is effective to reduce a glaucoma-associated symptom in the subject. A laquinimod composition as described herein is administered systematically or locally to the eye of a subject suffering from glaucoma. The administration of the composition is effective to treat the subject suffering from glaucoma. The administration of the composition is also effective to reduce a glaucoma-associated symptom of glaucoma in the subject.

[2] abbreviates: human subject with glaucoma, systemic or local administration to the eye.

Results on one molecule are retold here after patent publication US20170368054A1, “Treatment of Glaucoma Using Laquinimod” (Teva Pharmaceutical Industries, Ltd., priority 2013, published 2017).

`CCN(C(=O)c1c(O)c2c(Cl)cccc2n(C)c1=O)c1ccccc1` [Laquinimod]: the “Mean ΔIOP (OHT minus Non-OHT) (Mean±SD)” value in series [1] (Group 1, topical 1% laquinimod) was 9.1±2.2 mmHg; in series [1] (Group 3, topical 4% laquinimod), 9.3±2.7 mmHg; in series [1] (Group 4, topical 0.25% laquinimod), 9.2±1.5 mmHg; in series [1] (Group 5, oral 0.1% laquinimod), 9.1±2.9 mmHg. For the same molecule, the “Weight gained between day of dosing and day of euthanasia, groups compared” value in the series with Brown Norway rats is on record as “did not differ”. The “Treating glaucoma / reducing a glaucoma-associated symptom” value in the series with glaucoma human patients (human patients, periodic (e.g. daily or twice daily) oral or topical administration) is given as “effective”. In addition, in the series with glaucoma human patients (setting [2]), the “Reduction of RGC damage and/or RGC loss, improvement of RGC viability” value was “effective to reduce RGC damage and/or RGC loss”. Besides, in the series with glaucoma human patients (setting [2]), the “Reduction of intraocular pressure” value is “effective to reduce intraocular pressure”.
